Data reported in US20100227827A1, “METHOD OF INCREASING TRYPTOPHAN AND NICOTINAMIDE LEVELS IN VIVO” (priority 2006, published 2010).
Where two headings read alike, the source gives them in different places.

Experiments:
[1] = Repeat daily oral doses, quinic acid analyzed in serum by HPLC; type: in vivo, human
Procedure: Trial design for the clinical evaluation of Aqua Bimini™ (quinic acid ammonium chelate) was carried out at Lund University beginning Apr. 28, 2006. Two Subjects identity code protected as HL and RP received Aqua Bimini™ at 1500 mg/day and 3000 mg/day, respectively for 4 consecutive weeks (36 days). Repeat serum and urine samples were collected throughout the trial period and then pooled into groups for analysis as 6 weeks before (baseline), 4 weeks of intervention (treatment, 36 days) and 8 months dry-out (no treatment).
Two human volunteers subject two and subject one ingested daily doses of 1500 mg per day or 3000 mg per day and serum samples collected on May 8, May 15, May 18, May 23, May 29, and June 1.
These samples were each analyzed for quinic acid content in 200 μl serum after precipitation with 2 M trichloroacetic acid (TCA). The column used for these experiments was a C18 80×4.6 mm. The mobile phase was 0.2% trifluoroacetic (TFA):methanol 85:15. The UV detector was set at 215 nm and quinic acid eluted with a retention time of 1.40-1.5 min. The sensitivity for detection of this method was about 1 mg quinic acid /ml serum or a detectable dose of 70 mg/kg in humans not 21 to 42 mg/kg as used herein in this study. Thus this protocol could assess if the quinic acid levels in serum would accumulate after repeated daily administration during a period of 4-5 weeks.

[2] = Urinary quinic acid, hippuric acid, tryptophan and nicotinamide by HPLC; type: in vivo, human; conditions: for urinary tryptophan at start of treatment / urinary nicotinamide at start of treatment: 8 May 2006 and 15 May 2006; for dose excreted at 9 month: urine, oral, read-out: Dose recovery (excrete/dose), excreted as unmetabolized quinic acid
Procedure: Blood samples were collected by venal puncture using vacutainers (red top, 10 ml) usually in the morning (a.m.) after 12 hours of fasting. Serum was separated from the blood clot after setting 2 hr on the bench top before centrifugation for 10 min at 1500×g. Sera prepared in this manner were stored at +4° C. until biochemical analysis usually within 1-30 days of collection. Urine samples were collected as a random 50 ml sample in the A.M. during the treatment and follow-up (after treatment for 8 months) periods. Urine was spun at 5000×g for 15 min and the supernatant stored at +4° C. until analyzed within 1 month of collection. After the first analysis all samples were further stored at −20° C. and used for repeat determinations over time. Trial design for the clinical evaluation of Aqua Bimini™ (quinic acid ammonium chelate) was carried out at Lund University beginning Apr. 28, 2006. […] Repeat serum and urine samples were collected throughout the trial period and then pooled into groups for analysis as 6 weeks before (baseline), 4 weeks of intervention (treatment, 36 days) and 8 months dry-out (no treatment). Urine samples were mixed with 1:2:4 v/v/v of: aqueous urine:95% ethanol:ethyl acetate for 10 min with vigorous shaking. The ethyl acetate layer was allowed to separate with gravity at room temperature, and then it was removed with a pipette and evaporated with an air stream to dryness in a vacuum hood. In this manner 1-2 ml of urine were reconstituted in 0.2 ml water or ethanol which represented a 5-10 fold increase in concentration. […] The urine samples were diluted 1:2:4 v/v/v with ethanol and ethyl acetate, and then the ethyl acetate fraction dried, solubilized in 0.2 ml water and used for HPLC analyses with 20 μl injections directly onto a C18 80×4.6 mm. The mobile phase was 0.2% trifluoroacetic (TFA):methanol:acetonitrile (70:30):water in a ratio 8:8:84 (v/v/v). The UV detector was set at 215 nm, and quinic acid eluted with a retention of 0.97-1.05 min and nicotinamide at 2.6-2.9 min. The detection limit in urine was about 1.5 mg/ml for quinic acid and for nicotinamide it was 0.015 mg/ml. […] The urine samples were diluted 1:2:4 v/v/v with ethanol and ethyl acetate, and then the ethyl acetate fraction dried, solubilized in 0.2 ml water and used for HPLC analyses with 20 μl injections directly onto a C18 80×4.6 mm. The mobile phase was 70:30 v/v, 0.2% TFA: 30% methanol. The UV detector was set at 225 nm. Tryptophan eluted after 5.2-5.4 min and hippuric acid after 3.1-3.4 min.

[3] = Molar ratio from neutralization of free organic acid with hydroxides; type: physicochemical; conditions: salt or chelate; listed as Quinic acid ammonium salt
Procedure: Determination of salts and chelates of some naturally occurring polyhydroxylated and polycarboxylated organic acids are provided in Table 1. Experimental molar ratios were calculated from neutralization to pH=7.5 of free protonated organic acid (H^+) with sodium, potassium or ammonium hydroxides.

[4] = 3000 mg/day for 36 days (printed HL)
[5] = subject one (3000 mg/day), 1st 4 months no treatment, n=11
[6] = subject one (3000 mg/day), 2nd 4 months no treatment, n=3
[7] = subject one, 3000 mg/day QA (30 days), n=5
[8] = subject two (1500 mg/day), 1st 4 months no treatment, n=6
[9] = subject two (1500 mg/day), 2nd 4 months no treatment, n=6
[10] = subject two, 1500 mg/day QA (30 days), n=5

O=C(O)[C@]1(O)C[C@@H](O)[C@@H](O)[C@H](O)C1 [Aqua Bimini™, quinic acid ammonium chelate]
quinic acid in blood serum samples ([1]; 1500 mg or 3000 mg daily oral, 6 samples day 10 to day 37): No quinic acid was found
quinic acid in human serum ([1]; efficacious dose 25 mg/kg in humans, HPLC detection limit 1 mg/kg): no quinic acid found
urinary tryptophan at start of treatment ([2]; 3000 mg/day (printed HL)): 9.32 µM
Increase in urinary quinic acid (QA) metabolite (ratio), tryptophan [2, 4]: 2.44
Increase tryptophan/increase thiols [2, 4]: 1.94
average urinary tryptophan during treatment + follow-up [2, 4]: 22.7 µM
Increase in urinary quinic acid (QA) metabolite (ratio), nicotinamide ([2]; HL 1500 mg/day for 36 days): 2.83
Increase in urinary quinic acid (QA) metabolite (ratio), tryptophan ([2]; HL 1500 mg/day for 36 days): 0.99
Increase nicotinamide/increase thiols ([2]; HL 1500 mg/day for 36 days): 2.32
Increase tryptophan/increase thiols ([2]; HL 1500 mg/day for 36 days): 0.82
average urinary nicotinamide during treatment + follow-up ([2]; HL 1500 mg/day for 36 days): 215 µM
average urinary tryptophan during treatment + follow-up ([2]; HL 1500 mg/day for 36 days): 21.3 µM
urinary nicotinamide at start of treatment ([2]; HL 1500 mg/day): 76 µM
urinary tryptophan at start of treatment ([2]; HL 1500 mg/day): 19.3 µM
Increase in urinary quinic acid (QA) metabolite (ratio), nicotinamide ([2]; RP 3000 mg/day for 36 days): 5.41
Increase nicotinamide/increase thiols ([2]; RP 3000 mg/day for 36 days): 4.29
average urinary nicotinamide during treatment + follow-up ([2]; RP 3000 mg/day for 36 days): 57.9 µM
urinary nicotinamide at start of treatment ([2]; RP 3000 mg/day): 10.7 µM
Dose recovery (excrete/dose), excreted as unmetabolized quinic acid ([2]; Subject 3000 mg/day, 9 month evaluation period): 59%
Ratio of total dose excreted in 9 months ([2]; human, in vivo, 9 months): 2.86
remaining dose absorbed as hippuric acid or further metabolized to other compounds ([2]; human, in vivo, 1 day): 29.7%
dose excreted at 9 month ([2]; human, 1500 mg/day, Subject 1500 mg/day, 9 month evaluation period): 40%
dose excreted at 9 month ([2]; human, 3000 mg/day, Subject 3000 mg/day, 9 month evaluation period): 56%
Urinary excretion daily sample, Tryptophan (avg) ([2]; oral human dose 21-42 mg/kg (1500-3000 mg/day), 33 days, average over 9 months of RP and HL): Tryptophan. = 4.2 mg/liter^b
urinary Nicotinamide [2, 5]: 71 ± 44 µM
urinary Tryptophan [2, 5]: 22 ± 7 µM
urinary Nicotinamide [2, 6]: 71 ± 63 µM
urinary Tryptophan [2, 6]: 19 ± 6 µM
urinary Nicotinamide ([2]; subject one (3000 mg/day), total sample mean, 9 months, n=19): 58 ± 46 µM
urinary Tryptophan ([2]; subject one (3000 mg/day), total sample mean, 9 months, n=19, listed as QA): 19 ± 7 µM
urinary Nicotinamide [2, 7]: 21 ± 16 µM
urinary Tryptophan [2, 7]: 13 ± 5 µM
urinary Nicotinamide [2, 8]: 453 ± 139 µM
urinary Tryptophan [2, 8]: 30 ± 8 µM
urinary Nicotinamide [2, 9]: 24 ± 7 µM
urinary Tryptophan [2, 9]: 17 ± 7 µM
urinary Nicotinamide ([2]; subject two (1500 mg/day), total sample mean, 9 months, n=17): 216 ± 210 µM
urinary Tryptophan ([2]; subject two (1500 mg/day), total sample mean, 9 months, n=17, listed as QA): 22 ± 9 µM
urinary Nicotinamide [2, 10]: 163 ± 91 µM
urinary Tryptophan [2, 10]: 18 ± 5 µM
ratio of nicotinamide/thiols ratios, 3000 versus 1500 mg per day ([2]; theoretical dose ratio 2.0): 1.85
ratio of tryptophan/thiols ratios, 3000 versus 1500 mg per day ([2]; theoretical dose ratio 2.0): 2.4
Determination of structure existing in water [3]: chelate
